The results in this text go back to ChEMBL document CHEMBL1146785, “Synthesis and activity of phosphinic tripeptide inhibitors of cathepsin C” (Bioorg Med Chem Lett, 2004).

The target of this experiment is T1, Dipeptidyl peptidase 1 (Mus musculus, UniProt P97821).
T1 sequence (P97821 whole entry): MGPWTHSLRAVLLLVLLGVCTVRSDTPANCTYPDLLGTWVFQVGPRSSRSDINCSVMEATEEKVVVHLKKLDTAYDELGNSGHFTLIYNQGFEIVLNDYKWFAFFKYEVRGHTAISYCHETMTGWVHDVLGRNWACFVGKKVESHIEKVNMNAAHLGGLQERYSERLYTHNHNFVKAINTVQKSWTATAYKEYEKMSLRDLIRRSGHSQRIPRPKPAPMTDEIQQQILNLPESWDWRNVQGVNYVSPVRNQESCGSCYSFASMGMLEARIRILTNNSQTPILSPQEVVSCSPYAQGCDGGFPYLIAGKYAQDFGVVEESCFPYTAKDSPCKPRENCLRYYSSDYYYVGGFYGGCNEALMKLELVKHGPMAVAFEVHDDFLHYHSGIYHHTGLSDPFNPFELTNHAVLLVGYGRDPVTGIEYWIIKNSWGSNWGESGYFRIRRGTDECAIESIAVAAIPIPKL
Nature of the experiment: Compound was evaluated to inhibit cathepsin C (Dipeptidyl peptidase I) in non competitive binding assay.

pKi: −log10 of the molar value.

On to `COC(=O)CCP(=O)(O)C(CCc1ccccc1)NC(=O)CN` (stereo not drawn), for which the pKi – broadly, −log10 of the Ki, conventionally taken in molar units – was 3.51.

Compound `CC(C)CC(NC(=O)CN)P(=O)(O)CCC(=O)O` (stereo not drawn) showed a pKi of 4.41. In the case of `COC(=O)CCP(=O)(O)C(NC(=O)CN)c1ccccc1` (stereo not drawn) it was 3.73. For the compound `NCC(=O)NC(Cc1ccccc1)P(=O)(O)CCC(=O)O` (stereo not drawn), the pKi was 3.37.

As for `COC(=O)CCP(=O)(O)C(CC(C)C)NC(=O)CN` (stereo not drawn), the pKi was 4.40. With `COC(=O)CCP(=O)(O)C(Cc1ccccc1)NC(=O)CN` (stereo not drawn) the figure was 3.29; with `NCC(=O)NC(c1ccccc1)P(=O)(O)CCC(=O)O` (stereo not drawn), 3.75; with `NCC(=O)NC(CCc1ccccc1)P(=O)(O)CCC(=O)O` (stereo not drawn), 3.73.
